Source: patent US8501955B2, “Acetamide derivatives as glucokinase activators, their process and medicinal application” (Advinus Therapeutics Private Limited, priority 2007, dated 2013)

Target: T1, purified human recombinant GK (Homo sapiens, UniProt P35557)
T1 sequence (P35557 1-465): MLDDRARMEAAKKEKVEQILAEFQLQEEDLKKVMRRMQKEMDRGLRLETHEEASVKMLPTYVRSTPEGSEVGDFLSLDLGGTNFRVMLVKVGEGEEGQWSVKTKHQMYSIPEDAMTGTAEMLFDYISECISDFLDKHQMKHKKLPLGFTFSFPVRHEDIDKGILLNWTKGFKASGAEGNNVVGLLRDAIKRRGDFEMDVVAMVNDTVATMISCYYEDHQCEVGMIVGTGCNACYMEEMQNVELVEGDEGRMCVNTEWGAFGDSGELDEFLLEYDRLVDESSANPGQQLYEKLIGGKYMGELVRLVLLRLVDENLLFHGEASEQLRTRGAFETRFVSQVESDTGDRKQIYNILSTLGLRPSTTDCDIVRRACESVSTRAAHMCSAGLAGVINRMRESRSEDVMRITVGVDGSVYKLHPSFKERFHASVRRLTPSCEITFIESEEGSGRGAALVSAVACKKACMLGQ
Assay: Glucokinase activity assay (coupled enzymatic GK/G6PD assay, NADH absorbance at 340 nm)
Format: biochemical
Details: for EC50: EC50 of % change in S0.5 of glucokinase for glucose, sigmoidal fit, read-out: EC50 (with respect to % ΔS0.5); for Emax: Emax of % change in S0.5, vehicle S0.5 = 0%, 0 mM glucose = 100%, read-out: % Emax (with respect to % ΔS0.5)
Description: The glucokinase (GK) assay is a coupled enzymatic assay. GK catalyzes the first step of glycolysis, the conversion of glucose to glucose-6-phosphate (G6P) in the presence of ATP. G6P in turn is converted by glucose-6-phosphate dehydrogenase (G6PD) to 6-phosphogluconate, a process that requires NAD, resulting in NADH formation. Since the GK-catalyzed step is the rate-limiting step of this coupled enzymatic process, the rate of accumulation of 6-phosphogluconate and NADH is directly proportional to the rate of glucose phosphorylation by GK. The rate of the GK-catalyzed reaction can therefore be measured by monitoring the increase in NADH absorbance at 340 nm.
The assay is carried out according to the protocol outlined in Hariharan et al (1997), Diabetes 46: 11-16. Briefly, the test compounds are incubated in a reaction mix containing 25 mM HEPES (pH 7.2), 10 mM MgCl2, 100 mM KCl, 5 mM ATP, 2 mM DTT, 0.5 mM NAD, 1 U/ml Leuconostoc mesenteroides G6PD, 0.3 U/ml of purified human recombinant GK, and different concentrations of glucose. Enzymatic activity is calculated from the initial reaction velocity, measured from the change in NADH absorbance as a function of time.
Compounds described in formula (I), in concentration ranges from 1.0 nM to […] are tested in the purified human recombinant glucokinase assay described above.
A compound is considered to be a glucokinase activator if it, in its testable range of concentrations, yields a higher rate of glucose phosphorylation than in its absence at a particular glucose concentration, for example at 5 mM glucose.
Compounds of general formula (I) are tested in the in vitro GK enzymatic assay to monitor dose-dependent effect on glucokinase activation (in kinetic mode), as described above, at various glucose concentrations. The S0.5 of glucokinase for glucose at different concentration of each compound of interest is calculated from the following modified version of the Michaelis-Menten equation, V=Vmax[S]^n/(S0.5^n+[S]^n), where [S] is the glucose concentration and n is the Hill coefficient (taken as 1.7 to account for the sigmoidal kinetics of glucokinase with respect to glucose). The S0.5 is plotted against the log of the compound concentration. The change in the S0.5 of glucokinase (ΔS0.5) for glucose is calculated by subtracting the S0.5 at each concentration of the compound from the S0.5 in the vehicle control. The ΔS0.5 is then normalized to a percent scale, where the S0.5 in the vehicle control is set to 0% and 0 mM glucose is set to 100%. The % ΔS0.5 is then plotted against the log of the compound concentration. The EC50 and Emax of % change in S0.5 is obtained from the sigmoidal fit of the data. Detailed protocol has been described in our copending application no. WO 2008/104994 which is incorporated herein by reference. Characterization data of some representative glucokinase activators of the present disclosure, which are illustrative but not limiting, are given in table 1 below.

| EC50 [nM] | Emax [%] | SMILES |
| --- | --- | --- |
| 460 | 90 | O=C(Nc1ccc(Cl)cn1)C(Oc1ccc(Cl)cc1F)c1ccc(S(=O)(=O)C2CC2)cc1 (stereo not drawn) [Example A41, 2-(4-Chloro-2-fluorophenoxy)-N-(5-chloropyridin-2-yl)-2-(4-cyclopropanesulfonylphenyl)-acetamide] |
| 240 | 94 | CC(C)Oc1ccc2nc(NC(=O)C(OC3CCOCC3)c3ccc(S(=O)(=O)C4CC4)cc3)sc2n1 (stereo not drawn) [Example A82, 2-(4-Cyclopropanesulfonyl-phenyl)-N-(5-isopropoxy-thiazolo[5,4-b]pyridin-2-yl)-2-(tetrahydro-pyran-4-yloxy)-acetamide] |
| 1370 | 90 | Cn1ccc(NC(=O)C(Oc2ccc(Cl)cc2F)c2ccc(S(=O)(=O)C3CC3)cc2)n1 (stereo not drawn) [Example A46, 2-(4-Chloro-2-fluorophenoxy)-2-(4-cyclopropanesulfonylphenyl)-N-(1-methyl-1H-pyrazol-3-yl)acetamide] |
| > 10000 | – | O=C(O)c1csc(NC(=O)C(Oc2ccc(Cl)cc2F)c2ccc(S(=O)(=O)C3CC3)cc2)n1 (stereo not drawn) [Example B26, 2-[2-(4-Chloro-2-fluorophenoxy)-2-(4-cyclopropanesulfonylphenyl)acetylamino]thiazole-4-carboxylic acid] |
| 150 | 95 | Cc1cnc(NC(=O)C(Oc2ccc(Cl)cc2F)c2ccc(S(=O)(=O)C3CC3)cc2)s1 (stereo not drawn) [Example A43, 2-(4-Chloro-2-fluorophenoxy)-2-(4-cyclopropanesulfonylphenyl)-N-(5-methylthiazol-2-yl)acetamide] |
| 150 | 92 | O=C(Nc1ncc(F)s1)C(OC1CCOCC1)c1ccc(S(=O)(=O)C2CC2)cc1 (stereo not drawn) [Example A114, 2-(4-Cyclopropanesulfonyl-phenyl)-N-(5-fluoro-thiazol-2-yl)-2-(tetrahydro-pyran-4-yloxy)-acetamide] |
| 1200 | 90 | O=C(Nc1cnccn1)C(Oc1ccc(Cl)cc1F)c1ccc(S(=O)(=O)C2CC2)cc1 (stereo not drawn) [Example A47, 2-(4-Chloro-2-fluorophenoxy)-2-(4-cyclopropanesulfonylphenyl)-N-pyrazin-2-yl-acetamide] |
| 150 | 92 | N#Cc1ccc(Oc2cnc(NC(=O)C(OC3CCOCC3)c3ccc(S(=O)(=O)C4CC4)cc3)s2)cc1 (stereo not drawn) [Example A117, N-[5-(4-Cyano-phenoxy)-thiazol-2-yl]-2-(4-cyclopropanesulfonyl-phenyl)-2-(tetrahydro-pyran-4-yloxy)-acetamide] |
| 22 | – | O=C(O)c1ccc(Oc2cnc(NC(=O)C(O[C@@H]3CCOC3)c3ccc(S(=O)(=O)C4CC4)cc3)s2)cc1 (single isomer, unassigned) [Example H9A] |
| 120 | 95 | O=C(Nc1ncc(F)s1)C(Oc1ccc(Cl)cc1F)c1ccc(S(=O)(=O)C2CC2)cc1 (stereo not drawn) [Example A42, 2-(4-Chloro-2-fluorophenoxy)-2-(4-cyclopropanesulfonylphenyl)-N-(5-fluorothiazol-2-yl)acetamide] |
| 640 | 90 | O=C(Nc1ncc(F)s1)C(Oc1ccc2[nH]ccc2c1)c1ccc(S(=O)(=O)C2CC2)cc1 (stereo not drawn) [Example A28, 2-(4-Cyclopropanesulfonylphenyl)-N-(5-fluorothiazol-2-yl)-2-(1H-indol-5-yloxy)acetamide] |
| 280 | 90 | O=C(O)c1ccc(Oc2cnc(NC(=O)C(Oc3ccc(F)cc3F)c3ccc(S(=O)(=O)N4CCCCC4)cc3)s2)cc1 (stereo not drawn) [Example B50, 4-(2-{2-(2,4-Difluoro-phenoxy)-2-[4-(piperidine-1-sulfonyl)-phenyl]-acetylamino}-thiazol-5-yloxy)-benzoic acid] |
| 670 | 95 | O=C(O)Cc1nc(NC(=O)C(Oc2ccc(F)cc2F)c2ccc(S(=O)(=O)C3CCCCC3)cc2)sc1Cl (stereo not drawn) [Example B15, {5-Chloro-2-[2-(4-cyclohexanesulfonylphenyl)-2-(2,4-difluorophenoxy)acetylamino]-thiazol-4-yl}acetic acid] |
| 170 | 90 | O=C(Nc1nccs1)C(Oc1ccc(Cl)cc1)c1ccc(S(=O)(=O)C2CCCC2)cc1 (stereo not drawn) [Example A12, 2-(4-Chlorophenoxy)-2-(4-cyclopentanesulfonylphenyl)-N-thiazol-2-yl-acetamide] |
| 110 | 95 | O=C(Nc1ncc(F)s1)C(Oc1ccc(F)cc1F)c1ccc(S(=O)(=O)C2CCCC2)cc1 (stereo not drawn) [Example A11, 2-(4-Cyclopentanesulfonylphenyl)-2-(2,4-difluorophenoxy)-N-(5-fluoro-thiazol-2-yl)acetamide] |
| 110 | 93 | O=C(Nc1ncc(Oc2ccc(C(=O)N3CCC3)cc2)s1)C(Oc1ccc(F)cc1F)c1ccc(S(=O)(=O)C2CC2)cc1 (single isomer, unassigned; (+)) [Example H6A, (+)N-{5-[4-(Azetidine-1-carbonyl)-phenoxy]-thiazol-2-yl}-2-(4-cyclopropanesulfonyl-phenyl)-2-(2,4-difluoro-phenoxy)-acetamide] |
| 1300 | 90 | O=C(Nc1cc[nH]n1)C(Oc1ccc(Cl)cc1F)c1ccc(S(=O)(=O)C2CC2)cc1 (stereo not drawn) [Example A45, 2-(4-Chloro-2-fluorophenoxy)-2-(4-cyclopropanesulfonylphenyl)-N-(1H-pyrazol-3-yl)acetamide] |
| > 10000 | – | Cc1nc(NC(=O)C(Oc2ccc(F)cc2F)c2ccc(S(=O)(=O)C3CC3)cc2)sc1C(=O)O (stereo not drawn) [Example B12, 2-[2-(4-Cyclopropanesulfonylphenyl)-2-(2,4-difluorophenoxy)acetylamino]-4-methylthiazole-5-carboxylic acid] |
| 1600 | 90 | O=C(O)Cc1csc(NC(=O)C(Oc2ccc(F)cc2F)c2ccc(S(=O)(=O)C3CCCC3)cc2)n1 (stereo not drawn) [Example B14, {2-[2-(4-Cyclopentanesulfonylphenyl)-2-(2,4-difluorophenoxy)-acetylamino]-thiazol-4-yl}acetic acid] |
| 200 | 90 | NC(=O)c1cccc(Oc2cnc(NC(=O)C(Oc3ccc(F)cc3F)c3ccc(S(=O)(=O)C4CC4)cc3)s2)c1 (stereo not drawn) [Example G3, 3-{2-[2-(4-Cyclopropanesulfonyl-phenyl)-2-(2,4-difluoro-phenoxy)-acetylamino]-thiazol-5-yloxy}-benzamide] |
| 7100 | 90 | O=C(Nc1nncs1)C(Oc1ccc(F)cc1F)c1ccc(S(=O)(=O)C2CC2)cc1 (stereo not drawn) [Example A16, 2-(4-Cyclopropanesulfonylphenyl)-2-(2,4-difluorophenoxy)-N-[1,3,4]thiadiazol-2-yl-acetamide] |
| 1270 | 90 | O=C(Nc1nncs1)C(Oc1ccc(F)cc1F)c1ccc(S(=O)(=O)C2CCCC2)cc1 (stereo not drawn) [Example A27, 2-(4-Cyclopentanesulfonylphenyl)-2-(2,4-difluorophenoxy)-N-[1,3,4]thiadiazol-2-yl-acetamide] |
| 2000 | 90 | O=C(Nc1cc[nH]n1)C(Oc1ccc(F)cc1F)c1ccc(S(=O)(=O)C2CCCC2)c(Cl)c1 (stereo not drawn) [Example A37, 2-(3-Chloro-4-cyclopentanesulfonylphenyl)-2-(2,4-difluorophenoxy)-N-(1H-pyrazol-3-yl)acetamide] |
| 590 | 90 | CC(=O)Nc1cccc(OC(C(=O)Nc2ncc(F)s2)c2ccc(S(=O)(=O)C3CC3)cc2)c1 (stereo not drawn) [Example A29, 2-(3-Acetylaminophenoxy)-2-(4-cyclopropanesulfonylphenyl)-N-(5-fluoro-thiazol-2-yl)acetamide] |
